Usually pIC50 stands for −log10 of the IC50, conventionally taken in molar units. Usually pKd stands for the Kd on a negative log10 scale, so that one unit is a factor of ten.

These results are taken from patent US20130317045A1, “THIENOPYRIDINE AND THIENOPYRIMIDINE COMPOUNDS AND METHODS OF USE THEREOF” (AMBIT BIOSCIENCES CORPORATION, priority 2010, published 2013).

The test system of experiment [1] is GM-CSFR/JAK2/STAT5 pathway in CSTF-1 cells. The experiment in a line: CSTF-1 cell-based reporter assay (beta-lactamase, GM-CSF stimulated). On the set-up: species or system human. As to conditions: Homo sapiens; GM-CSF at 2 ng/mL, 4 hours; read-out: Cell Assay: CS TF-1 reporter assay IC50. As for the experimental part:
CSTF-1 Cell-Based Reporter Assay
CSTF-1 cells are derived from the human erythroleukemia cell line that is growth dependent on GM-CSF and has an intact GM-CSFR/JAK2/STAT5 pathway. The cell line contains stably integrated beta-lactamase reporter gene under the control of the […] (irf 1) response element recognized by the activated transcription factor STATS. csTF-1 cells (Invitrogen K1219) were washed with assay media (97% OPTIMEM/ 0.5% dialyzed FBS/0.1 mM NEAA/1 mM Na pyr/P/S) and seeded in the same media at 5×10^5 cell/mL in T150 flask. After 16 hour incubation, cells were seeded at 2×10^5 cell/well in 50 μl volume, into Costar, clear bottom, 96-well assay plates. Serial dilutions of compounds were added to the plates with final DMSO concentration at 0.5% and GM-CSF at 2 ng/mL and the plates were then incubated at […] and 5% CO2 for 4 hours. The plates were brought to room temperature before adding Substrate Mixture according to manufacturer's protocol (Invitrogen, Catalog #K1085). The assay plates containing the substrate mixture were incubated in the dark at room temperature for 2 hours. Blue and green fluorescence was measured with excitation at 409 nm and emission at 460 nm (for blue) and excitation at 409 nm and emission at 530 nm (for green) using Spectra Max Gemini EM.

Experiment [2] addresses T1, JAK2 (Homo sapiens, UniProt O60674).
T1 construct: made in house
The experiment is described as follows: Competition binding assay, JAK2. The source says:
(§1) Competition Binding Assay to Determine Binding Constants (Kd) of the Compounds Against JAK Kinases
(§2) Competition binding assays used herein were developed, validated and performed as described in Fabian et al., Nature Biotechnology 2005, 23,329-336. Kinases were produced as fusions to T7 phage (See, Fabian et al. or WO04/015142) or alternatively, the kinases were expressed in HEK-293 cells and subsequently tagged with DNA for PCR detection (See, WO08/005310). For the binding assays, streptavidin-coated magnetic beads were treated with biotinylated affinity ligands for 30 min at rt to generate affinity resins. The liganded beads were blocked with excess biotin and washed with blocking buffer (SeaBlock (Pierce), 1% BSA, 0.05% Tween 20, 1 mM DTT) to remove unbound ligand and to reduce non-specific binding. Binding reactions were assembled by combining kinase, liganded affinity beads, and test compounds in 1× binding buffer (20% SeaBlock, 0.17×PBS, 0.05% Tween 20, 6 mM DTT). Test compounds were prepared as 100× stocks in DMSO and rapidly diluted into the aqueous environment. DMSO was added to control assays lacking a test compound. Primary screen interactions were performed in polypropylene 384-well plates in a final volume of 34 μL, while Kd determinations were performed in polystyrene 96-well plates in a final volume of 135 μL. The assay plates were incubated at room temperature with shaking for 1 hour, long enough for binding reactions to reach equilibrium, and the affinity beads were washed extensively with wash buffer (1× PBS, 0.05% Tween 20) to remove unbound protein. The beads were then resuspended in elution buffer (1× PBS, 0.05% Tween 20, 2 μM non-biotinylated affinity ligand) and incubated at room temperature with shaking for 30 min. The kinase concentration in the eluates was measured by quantitative PCR. Each kinase was tested individually against each compound. Kds were determined using eleven serial threefold dilutions. A selectivity score, which is a quantitative measure of selectivity of a compound against a panel of enzymes, may be calculated for a compound by dividing the number of enzymes for which a compound meets a set criteria, (for example, a binding constant of 100 nM or less), by the total number of enzymes tested.

Experiment [3] concerns the target T2, JAK3 (Homo sapiens, UniProt P52333).
T2 construct: made in house
T2 sequence (P52333 1-1124): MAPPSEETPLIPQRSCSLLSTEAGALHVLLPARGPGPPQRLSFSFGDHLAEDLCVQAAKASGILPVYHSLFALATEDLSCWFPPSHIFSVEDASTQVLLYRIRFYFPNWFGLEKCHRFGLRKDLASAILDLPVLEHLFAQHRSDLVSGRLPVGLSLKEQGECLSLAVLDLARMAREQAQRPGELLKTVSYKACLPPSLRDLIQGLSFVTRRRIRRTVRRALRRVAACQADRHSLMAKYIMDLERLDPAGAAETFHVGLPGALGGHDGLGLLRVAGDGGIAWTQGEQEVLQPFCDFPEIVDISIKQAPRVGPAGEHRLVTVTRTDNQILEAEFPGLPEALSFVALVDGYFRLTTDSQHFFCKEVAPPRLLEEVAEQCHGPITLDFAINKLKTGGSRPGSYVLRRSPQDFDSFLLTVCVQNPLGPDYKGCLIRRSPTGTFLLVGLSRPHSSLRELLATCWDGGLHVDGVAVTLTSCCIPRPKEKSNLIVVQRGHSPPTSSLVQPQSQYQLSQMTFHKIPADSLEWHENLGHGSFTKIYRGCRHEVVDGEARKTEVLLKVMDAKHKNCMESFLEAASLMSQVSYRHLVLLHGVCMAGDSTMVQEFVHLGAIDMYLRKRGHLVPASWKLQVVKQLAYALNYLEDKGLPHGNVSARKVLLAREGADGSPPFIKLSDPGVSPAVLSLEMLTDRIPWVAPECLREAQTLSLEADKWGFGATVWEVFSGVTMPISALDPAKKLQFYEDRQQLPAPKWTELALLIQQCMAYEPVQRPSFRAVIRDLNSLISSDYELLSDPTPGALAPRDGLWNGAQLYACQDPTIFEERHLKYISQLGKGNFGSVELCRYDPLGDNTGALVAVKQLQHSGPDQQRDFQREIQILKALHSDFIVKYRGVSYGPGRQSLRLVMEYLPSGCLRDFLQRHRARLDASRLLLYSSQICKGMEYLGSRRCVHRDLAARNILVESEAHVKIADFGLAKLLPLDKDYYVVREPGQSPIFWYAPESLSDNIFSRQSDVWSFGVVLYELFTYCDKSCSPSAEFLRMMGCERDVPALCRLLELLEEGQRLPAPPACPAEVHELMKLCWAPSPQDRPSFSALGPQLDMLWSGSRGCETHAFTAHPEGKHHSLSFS
The experiment is described as follows: Competition binding assay, JAK3.
Excerpt: as §1, §2

Experiment [4] addresses T3, TYK2 (Homo sapiens, UniProt P29597).
T3 construct: made in house
The experiment in a line: Competition binding assay, TYK2.
Excerpt: as §1, §2

Experiment [5] deals with distinct kinases tested excluding mutant variants, typically 359 or 386 kinases. The experiment in a line: Kinase selectivity score from competition binding panel. As to conditions: compound at 10 μM; fraction of kinases with inhibition of 90% or greater. Here is the method: as §2

pIC50, pKd: −log10 of the molar value. Bounds are passed on as bounds.

T3 sequence (P29597 whole entry): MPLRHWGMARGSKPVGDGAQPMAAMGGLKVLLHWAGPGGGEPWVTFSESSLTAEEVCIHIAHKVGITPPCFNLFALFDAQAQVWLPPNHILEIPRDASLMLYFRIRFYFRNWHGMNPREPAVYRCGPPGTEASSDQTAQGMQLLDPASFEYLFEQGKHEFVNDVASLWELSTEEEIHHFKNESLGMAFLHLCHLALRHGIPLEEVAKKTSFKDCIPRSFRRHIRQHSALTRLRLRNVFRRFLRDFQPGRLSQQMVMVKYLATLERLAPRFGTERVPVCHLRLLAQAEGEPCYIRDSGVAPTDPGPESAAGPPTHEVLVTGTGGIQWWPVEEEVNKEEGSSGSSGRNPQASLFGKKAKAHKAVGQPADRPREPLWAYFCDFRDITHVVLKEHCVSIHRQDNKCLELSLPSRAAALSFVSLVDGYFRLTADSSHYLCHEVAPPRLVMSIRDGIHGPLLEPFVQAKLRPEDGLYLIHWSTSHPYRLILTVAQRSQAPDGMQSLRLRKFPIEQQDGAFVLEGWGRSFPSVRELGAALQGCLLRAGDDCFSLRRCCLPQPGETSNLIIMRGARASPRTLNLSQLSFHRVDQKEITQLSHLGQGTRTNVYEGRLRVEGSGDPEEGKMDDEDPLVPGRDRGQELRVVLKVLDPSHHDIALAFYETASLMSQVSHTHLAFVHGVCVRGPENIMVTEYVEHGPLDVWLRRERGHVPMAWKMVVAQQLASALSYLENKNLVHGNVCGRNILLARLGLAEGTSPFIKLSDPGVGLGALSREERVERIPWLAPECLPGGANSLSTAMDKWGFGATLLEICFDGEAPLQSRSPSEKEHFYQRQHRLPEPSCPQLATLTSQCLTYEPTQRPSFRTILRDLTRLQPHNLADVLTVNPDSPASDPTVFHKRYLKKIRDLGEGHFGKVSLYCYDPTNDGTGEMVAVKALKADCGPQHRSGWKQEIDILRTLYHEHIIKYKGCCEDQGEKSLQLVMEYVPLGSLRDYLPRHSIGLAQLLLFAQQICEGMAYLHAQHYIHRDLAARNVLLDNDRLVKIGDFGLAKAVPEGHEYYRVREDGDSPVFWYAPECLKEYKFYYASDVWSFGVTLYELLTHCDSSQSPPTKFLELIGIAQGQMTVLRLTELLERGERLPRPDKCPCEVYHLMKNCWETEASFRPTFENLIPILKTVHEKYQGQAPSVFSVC
T1 sequence (O60674 whole entry): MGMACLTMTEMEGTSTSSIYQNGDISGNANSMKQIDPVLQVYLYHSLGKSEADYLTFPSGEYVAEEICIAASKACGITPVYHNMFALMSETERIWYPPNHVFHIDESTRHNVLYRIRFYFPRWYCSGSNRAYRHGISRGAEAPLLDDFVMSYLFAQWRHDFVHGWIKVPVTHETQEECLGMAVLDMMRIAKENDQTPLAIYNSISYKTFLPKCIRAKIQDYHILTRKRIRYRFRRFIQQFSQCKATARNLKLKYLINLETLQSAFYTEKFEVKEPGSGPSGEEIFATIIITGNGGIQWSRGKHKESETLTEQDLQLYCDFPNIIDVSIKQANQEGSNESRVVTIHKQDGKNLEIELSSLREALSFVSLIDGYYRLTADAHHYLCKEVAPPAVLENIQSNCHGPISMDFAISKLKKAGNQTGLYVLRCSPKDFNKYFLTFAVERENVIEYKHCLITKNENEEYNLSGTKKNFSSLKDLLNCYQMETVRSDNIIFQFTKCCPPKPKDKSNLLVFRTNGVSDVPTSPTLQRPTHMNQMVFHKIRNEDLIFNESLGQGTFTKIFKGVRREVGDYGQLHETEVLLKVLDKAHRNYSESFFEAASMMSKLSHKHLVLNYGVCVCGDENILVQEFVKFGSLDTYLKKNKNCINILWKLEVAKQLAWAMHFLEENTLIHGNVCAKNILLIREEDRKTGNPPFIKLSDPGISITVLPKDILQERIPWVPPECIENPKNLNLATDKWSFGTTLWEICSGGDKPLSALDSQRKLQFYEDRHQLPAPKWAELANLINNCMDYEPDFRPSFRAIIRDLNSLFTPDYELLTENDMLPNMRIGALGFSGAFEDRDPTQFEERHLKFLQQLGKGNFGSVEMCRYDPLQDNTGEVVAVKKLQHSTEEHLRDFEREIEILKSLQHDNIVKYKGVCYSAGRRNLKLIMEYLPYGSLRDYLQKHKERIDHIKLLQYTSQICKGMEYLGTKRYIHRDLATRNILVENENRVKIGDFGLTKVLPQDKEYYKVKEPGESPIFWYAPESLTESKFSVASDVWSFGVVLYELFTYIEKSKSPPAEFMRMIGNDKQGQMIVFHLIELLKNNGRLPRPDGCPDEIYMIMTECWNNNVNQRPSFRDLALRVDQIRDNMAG

With `Cc1cc(Nc2nc(C(F)(F)c3ccc(F)cc3)nc3sc(C)cc23)n[nH]1` [Example 14, 2-(difluoro(4-fluorophenyl)methyl)-6-methyl-N-(5-methyl-1H-pyrazol-3-yl)thieno[2,3-d]pyrimidin-4-amine], in experiment [1], the pIC50 is at least 7.00. Further, the pKd in experiment [2] is at least 9.00; in experiment [3] it was 7.00 to 8.00; in experiment [4], at least 8.00. Also, the “S-Score: S(10) at 10 μM” value in experiment [5] is given as “A (A ≦ 0.3)”.
The like results for `Cc1cc(Nc2nc(C(=O)c3ccc(F)cc3)nc3cc(C)sc23)n[nH]1` [Example 20, (4-fluorophenyl)(6-methyl-4-(5-methyl-1H-pyrazol-3-ylamino)thieno[3,2-d]pyrimidin-2-yl)methanone] were, in that order, at least 7.00, at least 9.00, at least 8.00, 7.00 to 8.00 and “B (0.3 < B ≦ 0.4)”.
The like results for `Cc1cc(Nc2nc(C(O)c3ccc(F)cc3)nc3cc(C)sc23)n[nH]1` (racemic) [Example 21, (R,S)-(4-fluorophenyl)(6-methyl-4-(5-methyl-1H-pyrazol-3-ylamino)thieno[3,2-d]pyrimidin-2-yl)methanol] were, in that order, at least 7.00, at least 9.00, at least 8.00, at least 8.00 and “B (0.3 < B ≦ 0.4)”.
In the same order, the values of `Cc1cc(Nc2nc(C(O)c3ccc(F)cc3)nc3sc(C)cc23)n[nH]1` (racemic) [Example 16, (R,S)-(4-fluorophenyl)(6-methyl-4-(5-methyl-1H-pyrazol-3-ylamino)thieno[2,3-d]pyrimidin-2-yl)methanol] are at least 7.00, at least 9.00, 7.00 to 8.00, at least 8.00 and “C (0.4 < C ≦ 0.5)”.
Turning to `Cc1cc2c(Nc3cc[nH]n3)nc(C(O)c3ccc(F)cc3)nc2s1` (racemic) [Example 17, (R,S)-(4-(1H-pyrazol-3-ylamino)-6-methylthieno[2,3-d]pyrimidin-2-yl)(4-fluorophenyl)methanol], the pIC50 in experiment [1] was 6.30 to 7.00. For the same compound, the pKd in experiment [2] was at least 9.00; in experiment [3], 7.00 to 8.00; in experiment [4], below 7.00. The “S-Score: S(10) at 10 μM” value in experiment [5] is “A (A ≦ 0.3)”.
As for `Cc1cc(Nc2nc(C(O)c3ccc(F)cc3)nc3cscc23)n[nH]1` (racemic) [Example 32, (R,S)-(4-fluorophenyl)(4-(5-methyl-1H-pyrazol-3-ylamino)thieno[3,4-d]pyrimidin-2-yl)methanol], the pIC50 in experiment [1] was at least 7.00. Moreover, the pKd was at least 9.00 in experiment [2], at least 8.00 in experiment [3] and at least 8.00 in experiment [4]. Also, in experiment [5], the “S-Score: S(10) at 10 μM” value is given as “B (0.3 < B ≦ 0.4)”.
As for `Cc1cc(Nc2nc(C(C)(O)c3ccc(F)cc3)nc3ccsc23)n[nH]1` (racemic) [Example 18, (R,S)-1-(4-fluorophenyl)-1-(4-(5-methyl-1H-pyrazol-3-ylamino)thieno[3,2-d]pyrimidin-2-yl)ethanol], the pIC50 in experiment [1] was at least 7.00. The pKd in experiment [2] is at least 9.00; in experiment [3], at least 8.00; in experiment [4], at least 8.00.
Turning to `Cc1cc2c(Nc3cn(C)cn3)nc(C(O)c3ccc(F)cc3)nc2s1` (stereo not drawn) [Example 34, (4-fluorophenyl)(6-methyl-4-(1-methyl-1H-imidazol-4-ylamino)thieno[2,3-d]pyrimidin-2-yl)methanol], in experiment [1], the pIC50 is 6.30 to 7.00. The results for the negative-log Kd (pKd) in experiment [2] and in experiment [3] were at least 9.00 and below 7.00, respectively. For the same compound, in experiment [5], the “S-Score: S(10) at 10 μM” value is listed as “A (A ≦ 0.3)”.
As to `Cc1csc2c(Nc3cc[nH]n3)nc(C(O)c3ccc(F)cc3)nc12` (stereo not drawn) [Example 25, (4-(1H-Pyrazol-3-ylamino)-7-methylthieno[3,2-d]pyrimidin-2-yl)(4-fluorophenyl)methanol], the pIC50 in experiment [1] is 6.30 to 7.00. Further, the pKd in experiment [2] was 8.00 to 9.00; in experiment [3] it was 7.00 to 8.00; in experiment [4], at least 8.00.
